PubChem BioAssay AID1380 (University of Pittsburgh Molecular Library Screening Center, 2008)
The source made the active and inactive calls. How the calls were made is not given here.

Biological target: Cyclin-dependent kinase 7 (Homo sapiens) (UniProt P50613)
Assay: CDK7 kinase inhibition, dose response, counter-screen for PKD inhibitor project, biochemical, 57K library addition (AID 1380)
Details: CDK7 biochemical kinase assay, counterscreen

Chain of Cyclin-dependent kinase 7 (Homo sapiens) (P50613 whole entry, looked up): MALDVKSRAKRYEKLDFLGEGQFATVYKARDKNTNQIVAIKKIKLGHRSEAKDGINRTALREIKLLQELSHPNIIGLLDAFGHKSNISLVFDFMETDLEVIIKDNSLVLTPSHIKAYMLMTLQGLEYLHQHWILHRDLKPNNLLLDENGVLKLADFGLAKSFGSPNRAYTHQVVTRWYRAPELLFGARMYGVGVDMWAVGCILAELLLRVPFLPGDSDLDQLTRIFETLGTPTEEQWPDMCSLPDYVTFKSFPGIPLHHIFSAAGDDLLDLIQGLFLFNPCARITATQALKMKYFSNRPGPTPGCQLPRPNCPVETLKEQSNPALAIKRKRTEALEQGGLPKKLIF

IC50: > 100 µM (inactive)
Structure (SMILES): C/C(=N\Nc1ncc(Cl)cc1Cl)c1ccccn1
